# Reference: patent US20150057317A1, “GABR-A2 DIAGNOSTIC” (AstraZeneca AB, priority 2011, published 2015)
# How the values were obtained:
# [1] = system: patients with depression (poor responders to medications used in the treatment of depression); assay: Phase II study in depression, MADRS response by GABR-A2 SNP genotype; format: in vivo, human; conditions: for Additive genetic effect of minor allele on change in MADRS total score: treatment group
# Source text: Genomic DNA samples were collected from individuals enrolled in a Phase 11 study of COMPOUND A (total number of patients in the study was 152). The Phase II study was designed to measure the efficacy of COMPOUND A in the treatment of depression. Patients were selected for enrolment in the aforementioned Phase II study on the basis of their prior treatment history which defined them as poor responders to medications used in the treatment of depression. Common genetic variations (single nucleotide polymorphisms, SNPs) in genes encoding brain derived neurotrophic factor (BDNF) and the alpha-2 subunit of the GABAA receptor (GABR-A2) were tested using TaqMan® assays to measure their influence on the response to treatment for depression with COMPOUND A (an N-methyl-D-aspartate (NMDA) antagonist). Montgomery-Åsberg Depression Rating Scale (MADRS; Montgomery SA, Asberg M (April 1979). “A new depression scale designed to be sensitive to change”. British Journal of Psychiatry 134 (4): 382-89) was used as a measurement of treatment response. Thirty-two SNPs were selected for genotyping in GABR-A2 and six SNPs in BDNF.
# However, the results from the GABR-A2 gene did indicate an influence on change in MADRS from baseline for a number of SNPs, with the rs3756007 SNP showing the strongest association. Table 1 lists those genetic variations tested for which, on average, the minor allele positively influenced change in MADRS after treatment with COMPOUND A. The P value from the patients treated with the drug (treatment group) is also shown (therapeutic_pvalue).
# TaqMan® assays were used to detect the particular SNPs within the target genes. Each TaqMan® assay is specific for a given mutation or allele, i.e. designed to detect an alternate base relative to another base at a given position. each TaqMan® assay contains sequence-specific forward and reverse primers to amplify the polymorphic sequence of interest in the target gene along with TaqMan® probes labelled with different fluorescent tags to identify the target base (SNP). The TaqMan® assays were ordered from Applied Biosystems® and where possible Pre-Designed SNP Genotyping Assays were used. Each of the GABR-A2 SNPs showing association with an influence on the response to treatment for depression with COMPOUND A were detected using the commercially available Pre-Designed SNP Genotyping Assays.
# For each SNP assay, genomic DNA was extracted from the clinical sample and the TaqMan® assay was carried out using the primers in Table 2. For the TaqMan® reaction approximately 10 ng of genomic DNA was used, in a total reaction volume of 2 ul. The reaction used TaqMan® Genotyping Master Mix (Applied Biosystems®, part number 4381657). The TaqMan® Genotyping Master Mix was diluted 1:1 with deionised water and the TaqMan® assay used at 80× concentration. The reaction was then securely sealed before Thermal Cycling. Cycle conditions: 95° C. for 10 minutes followed by 40 cycles of 92° C. for 15 seconds, 60° C. for 60 seconds in a Thermal Cycler instrument (KBiosystems DT-108 Thermal Cycler). The plate was then analysed on the Applied Biosystems® 7900HT Sequence Detection System using the pre-programmed “Allelic Discrimination” analysis in the Applied Biosystems® SDS v2.4 Software.
# [2] = molecular target: NR1A/2A subtype of the NMDA receptor (Homo sapiens, UniProt Q05586+Q12879); conditions: cited from earlier work
# Chain of NR1A/2A subtype of the NMDA receptor (Q12879 23-1464, other chains not shown): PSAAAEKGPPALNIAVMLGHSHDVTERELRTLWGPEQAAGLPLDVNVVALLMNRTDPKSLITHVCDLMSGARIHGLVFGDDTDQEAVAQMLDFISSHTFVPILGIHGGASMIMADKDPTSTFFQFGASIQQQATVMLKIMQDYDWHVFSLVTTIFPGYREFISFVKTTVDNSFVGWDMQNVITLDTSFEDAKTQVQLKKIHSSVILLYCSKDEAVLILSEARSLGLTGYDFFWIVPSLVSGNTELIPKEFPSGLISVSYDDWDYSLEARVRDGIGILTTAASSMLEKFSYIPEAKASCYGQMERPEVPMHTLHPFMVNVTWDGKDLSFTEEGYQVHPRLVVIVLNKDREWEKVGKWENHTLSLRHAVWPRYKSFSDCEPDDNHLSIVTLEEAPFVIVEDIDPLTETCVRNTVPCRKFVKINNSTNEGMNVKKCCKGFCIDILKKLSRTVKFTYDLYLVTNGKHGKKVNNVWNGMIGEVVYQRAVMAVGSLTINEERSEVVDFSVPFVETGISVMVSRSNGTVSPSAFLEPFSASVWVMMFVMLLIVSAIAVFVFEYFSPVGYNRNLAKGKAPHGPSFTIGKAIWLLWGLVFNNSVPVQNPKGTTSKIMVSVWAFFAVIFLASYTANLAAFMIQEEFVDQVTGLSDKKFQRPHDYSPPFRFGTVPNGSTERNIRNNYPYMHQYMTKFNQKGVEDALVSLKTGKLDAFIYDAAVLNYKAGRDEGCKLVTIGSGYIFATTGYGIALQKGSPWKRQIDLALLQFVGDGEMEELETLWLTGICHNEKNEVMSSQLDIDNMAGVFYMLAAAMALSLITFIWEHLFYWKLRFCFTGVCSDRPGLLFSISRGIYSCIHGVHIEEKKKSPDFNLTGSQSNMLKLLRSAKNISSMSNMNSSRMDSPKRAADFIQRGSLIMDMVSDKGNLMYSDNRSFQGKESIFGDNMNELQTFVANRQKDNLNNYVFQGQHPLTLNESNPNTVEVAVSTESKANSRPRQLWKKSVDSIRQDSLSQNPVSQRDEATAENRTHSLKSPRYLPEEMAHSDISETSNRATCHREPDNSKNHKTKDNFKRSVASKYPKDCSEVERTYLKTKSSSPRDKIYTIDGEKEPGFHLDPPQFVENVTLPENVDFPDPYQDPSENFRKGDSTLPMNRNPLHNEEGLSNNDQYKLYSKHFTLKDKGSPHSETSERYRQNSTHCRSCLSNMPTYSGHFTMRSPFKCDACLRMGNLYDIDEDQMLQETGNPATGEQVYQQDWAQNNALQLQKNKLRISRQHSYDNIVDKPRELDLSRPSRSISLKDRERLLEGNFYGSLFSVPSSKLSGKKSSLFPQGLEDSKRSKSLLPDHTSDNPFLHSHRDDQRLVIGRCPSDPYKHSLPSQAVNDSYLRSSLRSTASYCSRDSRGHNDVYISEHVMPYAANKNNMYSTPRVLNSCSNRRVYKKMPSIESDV
# [3] = system: human volunteers and patients; conditions: cited from earlier work
# patients with MDD = conditions: cited from earlier work
Compound,"Additive genetic effect of minor allele on change in MADRS total score ([1]; SNP rs1372472, minor allele T, therapeutic P value 0.0108)","Additive genetic effect of minor allele on change in MADRS total score ([1]; SNP rs3756007, minor allele C, therapeutic P value 0.0021)","Additive genetic effect of minor allele on change in MADRS total score ([1]; SNP rs11503016, minor allele T, therapeutic P value 0.0374)","Additive genetic effect of minor allele on change in MADRS total score ([1]; SNP rs17537359, minor allele C, therapeutic P value 0.0038)","improvement in minor allele carriers versus major allele homozygote ([1]; minor allele at rs3756007, rs11503016, rs17537359 and rs1372472, on average)",IC50 [2] [nM],propensity for causing psychotomimetic effects ([3]; compared with effects found with ketamine exposure),tolerability ([3]; more than 500 human volunteers and patients),antidepressant effects (patients with MDD)
"N[C@@H](Cc1ccccn1)c1ccccc1 [COMPOUND A, (S)-1-phenyl-2-(pyridin-2-yl)ethanamine]",−4.83,−12.84,−5.33,−9.40,greater improvement,350,little propensity,very well tolerated,–
CNC1(c2ccccc2Cl)CCCCC1=O (stereo not drawn) [ketamine],–,–,–,–,–,–,–,–,rapid antidepressant effects
